Assay results from PubChem BioAssay (NCI).
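Method: 48-hour compound exposure of cells in 96-well plates, five concentrations, linear interpolation of endpoints. GI50 marks 50% less growth. TGI is the concentration that stops growth completely.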

Legend:
Assay in all cases: growth of human tumour cells (NCI), 48 h
[1] = tested on: SF-539 CNS
[2] = tested on: COLO 205 colon
[3] = tested on: RPMI-8226 leukemia
[4] = tested on: T-47D breast
[5] = tested on: HCC-2998 colon
[6] = tested on: UACC-62 melanoma
[7] = tested on: RXF 393 renal
[8] = tested on: HOP-62 NSCLC
[9] = tested on: HCT-15 colon
[10] = tested on: A498 renal
[11] = tested on: NCI-H226 lung
[12] = tested on: CAKI-1 renal
[13] = tested on: NCI/ADR-RES ovarian
[14] = tested on: TK-10 renal
[15] = tested on: SNB-19 CNS
[16] = tested on: NCI-H522 lung
[17] = tested on: HL-60(TB) leukemia
[18] = tested on: PC-3 prostate
[19] = tested on: M14 melanoma
[20] = tested on: K-562 leukemia
[21] = tested on: SW-620 colon
[22] = tested on: UACC-257 melanoma
[23] = tested on: HS 578T breast
[24] = tested on: 786-0 renal
[25] = tested on: IGROV1 ovarian
[26] = tested on: UO-31 renal
[27] = tested on: ACHN renal
[28] = tested on: DU-145 prostate
[29] = tested on: LOX IMVI melanoma
[30] = tested on: SK-OV-3 ovarian
[31] = tested on: MDA-MB-435
[32] = tested on: MDA-MB-231 breast
[33] = tested on: MOLT-4 leukemia
[34] = tested on: EKVX NSCLC
[35] = tested on: OVCAR-8 ovarian
[36] = tested on: NCI-H460 lung
[37] = tested on: OVCAR-5 ovarian
[38] = tested on: HOP-92 NSCLC
[39] = tested on: HT29 colon
[40] = tested on: MDA-MB-468 breast
[41] = tested on: U251 CNS
[42] = tested on: OVCAR-4 ovarian
[43] = tested on: SK-MEL-2 melanoma
[44] = tested on: SF-295 CNS
[45] = tested on: MCF7 breast
[46] = tested on: BT-549 breast
[47] = tested on: OVCAR-3 ovarian
[48] = tested on: HCT-116 colon
[49] = tested on: NCI-H23 lung
[50] = tested on: MALME-3M melanoma
[51] = tested on: CCRF-CEM leukemia
[52] = tested on: SF-268 CNS
[53] = tested on: SK-MEL-5 melanoma
[54] = tested on: SN12C renal
[55] = tested on: SK-MEL-28 melanoma
[56] = tested on: KM12 colon
[57] = tested on: A549 NSCLC

## Clc1cccc(N/N=C/c2c[nH]c3ccc(Br)cc23)n1
[1]
  GI50: 1.6 µM
  TGI: 15 µM
[2]
  GI50: 11.8 µM
  TGI: 24.2 µM
[3]
  GI50: 2.2 µM
  TGI: 20.4 µM
[4]
  GI50: 3.38 µM
  TGI: 20.3 µM
[5]
  GI50: 4.07 µM
  TGI: 14.3 µM
[6]
  GI50: 0.718 µM
  TGI: 18.1 µM
[7]
  GI50: 1.23 µM
  TGI: 8.11 µM
[8]
  GI50: 4.28 µM
  TGI: 18.8 µM
[9]
  GI50: 3.87 µM
  TGI: 15.3 µM
[10]
  GI50: 17 µM
  TGI: 32.2 µM
[11]
  GI50: 0.416 µM
  TGI: 18 µM
[12]
  GI50: 1.29 µM
  TGI: 12.2 µM
[13]
  GI50: 3.08 µM
  TGI: 17.6 µM
[14]
  GI50: 14 µM
  TGI: 27.2 µM
[15]
  GI50: 10.2 µM
  TGI: 21.8 µM
[16]
  GI50: 1.01 µM
  TGI: 11.9 µM
[17]
  GI50: 2.7 µM
  TGI: 23.9 µM
[18]
  GI50: 1.25 µM
  TGI: 14 µM
[19]
  GI50: 4 µM
  TGI: 17.9 µM
[20]
  GI50: 2 µM
  TGI: 29.6 µM
[21]
  GI50: 3.22 µM
  TGI: 15.5 µM
[22]
  GI50: 12 µM
  TGI: 25.2 µM
[23]
  GI50: 2.94 µM
  TGI: 27.1 µM
[24]
  GI50: 6.61 µM
  TGI: 20.3 µM
[25]
  GI50: 0.349 µM
  TGI: 2.59 µM
[26]
  GI50: 0.391 µM
  TGI: 14.8 µM
[27]
  GI50: 6.73 µM
  TGI: 20.1 µM
[28]
  GI50: 8.12 µM
  TGI: 21 µM
[29]
  GI50: 1.22 µM
  TGI: 11 µM
[30]
  GI50: 2.04 µM
  TGI: 16 µM
[31]
  GI50: 2.6 µM
  TGI: 11.6 µM
[32]
  GI50: 1.47 µM
  TGI: 8.95 µM
[33]
  GI50: 0.416 µM
  TGI: 11.5 µM
[34]
  GI50: 1.6 µM
  TGI: 14.6 µM
[35]
  GI50: 5.91 µM
  TGI: 26 µM
[36]
  GI50: 3.52 µM
  TGI: 15.2 µM
[37]
  GI50: 10.2 µM
  TGI: 22.1 µM
[38]
  GI50: 1.55 µM
  TGI: 8.21 µM
[39]
  GI50: 10.8 µM
  TGI: 24 µM
[40]
  GI50: 4.42 µM
  TGI: 16.6 µM
[41]
  GI50: 8.5 µM
  TGI: 23.6 µM
[42]
  GI50: 6.12 µM
  TGI: 23.9 µM
[43]
  GI50: 4.85 µM
  TGI: 19.5 µM
[44]
  GI50: 7.12 µM
  TGI: 20.4 µM
[45]
  GI50: 3.74 µM
  TGI: 17 µM
[46]
  GI50: 0.296 µM
  TGI: 12.3 µM
[47]
  GI50: 2.11 µM
  TGI: 11.1 µM
[48]
  GI50: 4.36 µM
  TGI: 18 µM
[49]
  GI50: 10.2 µM
  TGI: 23.4 µM
[50]
  GI50: 11.6 µM
  TGI: 24.5 µM
[51]
  GI50: 0.231 µM
  TGI: 16 µM
[52]
  GI50: 1.85 µM
  TGI: 15.3 µM
[53]
  GI50: 10.3 µM
  TGI: 22 µM
[54]
  GI50: 0.695 µM
  TGI: 13 µM
[55]
  GI50: 14.2 µM
  TGI: 27.3 µM
[56]
  GI50: 2.69 µM
  TGI: 9.62 µM
[57]
  GI50: 11.7 µM
  TGI: 26.3 µM
